The values below come from ChEMBL document CHEMBL6071202, “Design, Synthesis, and Biological Evaluation of 3-Amino-pyrazine-2-carboxamide Derivatives as Novel FGFR Inhibitors” (ACS Med Chem Lett, 2024).

The structures appear in SMILES notation.

Experiment [1] concerns the target Fibroblast growth factor receptor 2 (Homo sapiens, UniProt P21802). The experiment is described as follows: Inhibition of FGFR2 (unknown origin).
For experiment [2], the target named is T1, Receptor-type tyrosine-protein kinase FLT3 (Homo sapiens, UniProt P36888).
T1 sequence (P36888 whole entry): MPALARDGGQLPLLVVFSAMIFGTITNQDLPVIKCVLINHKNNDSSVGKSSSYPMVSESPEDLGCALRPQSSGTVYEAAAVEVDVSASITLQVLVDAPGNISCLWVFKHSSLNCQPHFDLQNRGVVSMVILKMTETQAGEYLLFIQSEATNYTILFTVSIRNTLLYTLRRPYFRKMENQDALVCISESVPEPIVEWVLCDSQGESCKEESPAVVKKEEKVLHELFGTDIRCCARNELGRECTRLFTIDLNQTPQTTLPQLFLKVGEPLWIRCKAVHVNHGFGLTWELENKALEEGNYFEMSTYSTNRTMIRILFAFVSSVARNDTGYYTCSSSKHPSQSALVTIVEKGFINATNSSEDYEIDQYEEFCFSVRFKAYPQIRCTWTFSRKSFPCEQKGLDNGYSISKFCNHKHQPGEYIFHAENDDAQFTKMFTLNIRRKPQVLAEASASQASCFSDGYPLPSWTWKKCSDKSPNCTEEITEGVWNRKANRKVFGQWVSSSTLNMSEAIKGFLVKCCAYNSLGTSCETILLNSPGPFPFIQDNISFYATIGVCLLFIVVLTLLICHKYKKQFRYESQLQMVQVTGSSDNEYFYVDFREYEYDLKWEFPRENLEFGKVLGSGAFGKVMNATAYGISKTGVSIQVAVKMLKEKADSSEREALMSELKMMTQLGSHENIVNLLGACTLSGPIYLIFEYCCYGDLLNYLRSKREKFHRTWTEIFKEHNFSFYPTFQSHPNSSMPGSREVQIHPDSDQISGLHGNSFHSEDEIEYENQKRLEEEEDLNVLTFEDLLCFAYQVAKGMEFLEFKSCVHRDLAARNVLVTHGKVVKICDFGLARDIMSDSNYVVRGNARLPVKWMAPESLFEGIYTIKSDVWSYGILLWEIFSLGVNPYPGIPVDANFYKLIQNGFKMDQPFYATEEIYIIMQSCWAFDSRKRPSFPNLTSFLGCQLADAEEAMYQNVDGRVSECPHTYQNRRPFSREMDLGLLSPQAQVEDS
The experiment in a line: Inhibition of FLT3 (unknown origin) by immobilized metal ion affinity-based fluorescence polarization. (In general: Fluorescence polarisation rises when a labelled molecule tumbles more slowly, as on binding a larger partner.)

Chain of Fibroblast growth factor receptor 2 (P21802 whole entry): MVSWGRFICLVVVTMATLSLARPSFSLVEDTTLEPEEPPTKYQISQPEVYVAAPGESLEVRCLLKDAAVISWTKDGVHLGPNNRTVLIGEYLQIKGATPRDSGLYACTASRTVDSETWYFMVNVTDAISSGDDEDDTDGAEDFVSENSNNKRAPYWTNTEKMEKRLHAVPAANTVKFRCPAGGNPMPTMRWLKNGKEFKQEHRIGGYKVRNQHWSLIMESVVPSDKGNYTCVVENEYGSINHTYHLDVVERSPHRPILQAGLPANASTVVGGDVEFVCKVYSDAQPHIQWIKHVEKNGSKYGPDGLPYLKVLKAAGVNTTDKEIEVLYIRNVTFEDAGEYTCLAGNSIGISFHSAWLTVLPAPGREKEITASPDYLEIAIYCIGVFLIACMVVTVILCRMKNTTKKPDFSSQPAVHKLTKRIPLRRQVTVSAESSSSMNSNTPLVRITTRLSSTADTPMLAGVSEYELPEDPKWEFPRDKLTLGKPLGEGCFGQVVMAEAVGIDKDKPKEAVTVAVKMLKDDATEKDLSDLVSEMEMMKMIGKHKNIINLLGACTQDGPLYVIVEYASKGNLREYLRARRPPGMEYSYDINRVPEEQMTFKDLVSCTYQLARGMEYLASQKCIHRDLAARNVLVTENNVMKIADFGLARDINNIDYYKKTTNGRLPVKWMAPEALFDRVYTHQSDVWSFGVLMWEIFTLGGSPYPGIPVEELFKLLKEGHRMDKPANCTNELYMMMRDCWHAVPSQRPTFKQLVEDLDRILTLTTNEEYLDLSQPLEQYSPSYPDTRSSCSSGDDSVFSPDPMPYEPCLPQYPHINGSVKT

One may read the IC50 as the point on the concentration scale where inhibition reaches its midpoint. Low readings indicate higher potency, high ones lower potency. Consider `Nc1ncc(-c2ccncc2)nc1Nc1ccc2[nH]ccc2c1` [AKN-028], for which the figures for the IC50 in experiment [1] and in experiment [2] were 120 nM and 6 nM, respectively.
